{"source": "patent US20070166246A1", "about": "“Composition for oral cavity” (TOYO SHINYAKU CO., LTD., priority 2004, published 2007)", "test_system": "blood flow in the lower gingiva", "experiment": "Blood flow improvement in the gingiva using tablets (Example 3)", "assay_type": "in vivo, human", "conditions": "gradually dissolved in the mouth (two tablets, about 2 mg extract; vitamin E 100 mg alone), four volunteers, mean ± standard deviation", "protocol": "Next, using the tablets, an experiment was conducted with respect to the effect of improving blood flow in a tissue (the gingiva) of the mouth through the cooperation of four of the five volunteers in Example 1. More specifically, first, the volunteers put two tablets in their mouths, and ingested the tablets into the body while gradually dissolving the tablets in their mouths. Next, at predetermined times (five minutes and 15 minutes) after completion of ingestion of the tablets, the blood flow in the lower gingiva was measured with a blood flow meter. It should be noted that the blood flow meter and others that were used herein are the same as those in Example 1. Moreover, as an example of a substance that improves blood flow, vitamin E (100 mg) alone was ingested while being gradually dissolved in the mouth, and the blood flow was also measured. Furthermore, the tablets containing the pine bark extract (two tablets) were ingested by being swallowed at one gulp with 10 mL of distilled water, instead of being gradually dissolved in the mouth, and the blood flow was also measured.\nThe results of the blood flow measurement are shown as relative values, taking the measurement results of the blood flow measurement performed before putting the tablets in the mouth as 100. […]"}
{"substance": "vitamin E", "values": [{"measurement": "blood flow in the lower gingiva, relative value (before putting the tablets in the mouth = 100)", "setting": "5 min after ingestion", "value": "116.99 ± 14.39"}, {"measurement": "blood flow in the lower gingiva, relative value (before putting the tablets in the mouth = 100)", "setting": "15 min after ingestion", "value": "105.63 ± 16.16"}]}
